This is an account of results in US20030083374A1, “NAALADase inhibitors useful as pharmaceutical compounds and compositions” (priority 1998, published 2003).

Assay [1] deals with Dorsal root ganglia-Schwann cell co-cultures. Briefly: in vitro myelination in dorsal root ganglia-Schwann cell co-cultures. It is filed as cell-based. An excerpt:
The inventors hypothesized that NAALADase may play a role in signaling myelin formation and inhibition of NAALADase may facilitate myelination. To test this hypothesis, the inventors examined the effects of several NAALADase inhibitors in a well established in vitro model system of myelination. Dorsal root ganglia-Schwann cell co-cultures were established as previously described (Einheber et al., J. Cell. Biol., Vol. 123, p. 1223). Following 7 days in co-culture, myelination was initiated following the addition of serum and ascorbic acid with various doses of NAALADase inhibitors (1 nM to 10 μM) or progesterone (20 nM; positive control). The extent of myelination was examined between days 14-21 using immunocytochemical staining for myelin basic protein (MBP), a known myelin marker.

In assay [2] the test system is streptozotocin (STZ)-induced peripheral diabetic neuropathy. Briefly: in vivo STZ-induced peripheral diabetic neuropathy model, plantar test. Also noted: species or system Male Sprague-Dawley rats. The conditions noted are these: 50 mg/kg i.p. once per day, following 5 days of dosing. The protocol:
NAALADase inhibition in an in vivo streptozotocin (STZ)-induced peripheral diabetic neuropathy model was studied. Male Sprague-Dawley rats weighing 200-250 g were rendered diabetic by intravenous injection of 60 mg/kg STZ into the tail vein. Plasma glucose levels were determined 3 weeks after STZ administration. Only STZ-animals with plasma glucose levels>300 mg/dL (17 mM) were used in the study. Thermal pain threshold and withdrawal latency were used to assess the status of the small dorsal root ganglion (DRG) sensory neurons. Pain was monitored using the plantar test (Hargreaves' Method) using a Basile Plantar apparatus built by Ugo Basil, Vaarese, Italy.
At two months following the STZ administration, the diabetic animals were hyperalgesic as compared to non-diabetic controls as determined by their difference in withdrawal latency. At this time, the rats were administered either the NAALADase inhibitor Compound 2 (50 mg/kg) or vehicle intraperitoneally once per day for 20 days. Thermal pain responses were measured at days 3, 5, 12 and 19 post-dosing. […] This difference was maintained throughout the observation period.

A further assay relates to PCP-treated rats. Briefly: in vivo assay on schizophrenia (PCP model). The settings on record: 50 mg/kg i.p. before PCP (5 mg/kg). The protocol:
Rats treated with PCP develop symptoms, such as frantic running and incessant head-turning, that parallel psychotic symptoms in humans. Thus, to examine the effects of NAALADase inhibition on schizophrenia, rats were treated intraperitoneally with Compound 1 (50 mg/kg), Compound 2 (50 mg/kg) or a vehicle (H2O) before they received PCP (5 mg/kg). Head rolling scores were measured for over 2 hours following PCP injection.

Assay [3] has as its system BB/W diabetic rats. Briefly: nerve conduction velocity in BB/W diabetic rats. The conditions noted are these: 10 mg/kg daily; starting at 8 weeks, through six months. The format is in vivo, Male BB/W rats. An excerpt: Male BB/W rats (BR1, Mass) spontaneously develop a cell mediated autoimmune destruction of pancreatic B cells, resulting in onset of insulin-dependent (Type I) diabetes (Guberski 1994). […] This renders them valuable for experimental trials of new compounds for future treatments of this major disorder. In the present study, Compound 1 and Compound 2 were examined for their ability to alter the progression of diabetic neuropathy. The rats received daily injection of Compound 1 or Compound 2 (10 mg/kg i.p.) or vehicle, starting at the onset of diabetes (hyperglycemia) and up to 6 months thereafter. Another group of non-diabetic rats also receiving vehicle were tested. All animals were continuously monitored for body weight, urine volume, blood sugar and glycated haemoglobin. In the first month of the study, all animals were tested for thermal nociception in a Hargreaves apparatus, weekly. After the first month this was done biweekly and then monthly. The testing consists of directing an infrared heat source onto the […] surface of the rat hindpaw and noting the time taken for the animal to remove its paw (for detailed method see Hargreaves et al. 1998). […]
Nerve conduction velocity was also measured every two weeks through the first eight weeks of treatment and every month thereafter through to the six months of treatment (see De Koning et al. 1987 for method details). […]

A further assay relates to STZ-diabetic animals. Briefly: motor and sensory nerve conduction velocity in STZ-diabetic animals. The conditions noted are these: 10 mg/kg daily. It is filed as in vivo, rats. The protocol:
(§1) Male Sprague-Dawley rats (200-225 g) were rendered diabetic by intravenous administration of streptozotocin (STZ, 70 mg/kg in phosphate buffered saline). Diabetic animals were divided into five groups: one group receiving Compound 2 (10 mg/kg or 1 mg/kg), Compound 1 (10 mg/kg or 1 mg/kg) or vehicle. Another group of animals (non-STZ treated) served as non-diabetic controls. Drug/vehicle treatment was started in diabetic animals 45 days post-STZ administration. STZ-induced diabetic rats were tested for sensitivity to a heat source as soon as blood glucose levels rose to 320 mg/dl or above (30 days post STZ). The rats were then acclimated to the Hargreaves apparatus and thermal nociception was monitored using an infrared heat source directed into the […] surface of the hindpaw, and the time taken for the animal to remove its paw noted to the nearest 0.1 seconds (see Hargreaves et al. 1998 for detailed method). The intensity of the beam source was adjusted such that the mean latency for control animals (non-STZ treated) was approximately 10 seconds. Each animal was tested 8 times and the mean difference score (between mean non-diabetic control latency and mean diabetic latency) are graphically presented in FIGS. 19A and 19B.
Motor and sensory nerve conduction velocity was also measured in STZ-diabetic animals after 4, 8 and 12 weeks of treatment (see De Koning and Gispen 1987 for detailed method). Briefly, stimulating needle electrodes were inserted close to the sciatic and tibial nerves with recording electrodes being placed subcutaneously over the distal foot muscles, in anesthetized rats.

For assay [4], the system named is STZ-induced diabetic rats. Nature of the assay: in vivo assay on neuropathic pain in STZ-diabetic rats (Hargreaves). Also on record: species or system Male Sprague-Dawley rats. The conditions noted are these: 10 mg/kg i.p. daily, started 45 days post-STZ. The protocol: as §1
Assay [5] has as its system BB/W diabetic rats. Nature of the assay: progression of neuropathic pain in BB/W diabetic rats, thermal nociception. It is filed as in vivo, Male BB/W rats. The settings on record: 10 mg/kg i.p. daily; starting after 4 weeks, through six months. An excerpt: Male BB/W rats (BR1, Mass) spontaneously develop a cell mediated autoimmune destruction of pancreatic B cells, resulting in onset of insulin-dependent (Type I) diabetes (Guberski 1994). […] This renders them valuable for experimental trials of new compounds for future treatments of this major disorder. In the present study, Compound 1 and Compound 2 were examined for their ability to alter the progression of diabetic neuropathy. The rats received daily injection of Compound 1 or Compound 2 (10 mg/kg i.p.) or vehicle, starting at the onset of diabetes (hyperglycemia) and up to 6 months thereafter. Another group of non-diabetic rats also receiving vehicle were tested. All animals were continuously monitored for body weight, urine volume, blood sugar and glycated haemoglobin. In the first month of the study, all animals were tested for thermal nociception in a Hargreaves apparatus, weekly. After the first month this was done biweekly and then monthly. The testing consists of directing an infrared heat source onto the […] surface of the rat hindpaw and noting the time taken for the animal to remove its paw (for detailed method see Hargreaves et al. 1998). Each animal was tested 8 times and the mean withdrawal latency noted.

Assay [6] deals with acetic acid (0.6%) induced writhing. Briefly: acetic acid model of pain (writhing). The conditions noted are these: pretreated. It is filed as in vivo, mice. An excerpt: One source of neuronal glutamate is thought to derive from the abundant neuropeptide NAAG which is hydrolyzed by NAALADase to liberate free glutamate. The inventors hypothesized that inhibition of NAALADase could limit pain by preventing this source of glutamate. To test this hypothesis, the inventors examined the possible antinocipetive effects of several NAALADase inhibitors in the formalin-, acetic acid- and chronic constrictive injury (CCI; “Bennett model”) models of pain. […] On day 7, 5% formalin was injected into the dorsum of the rat's hindpaw.
A general note: Writhing tests count abdominal constrictions after an irritant is injected.

As to `O=C(O)CCC(CP(=O)(O)Cc1c(F)c(F)c(F)c(F)c1F)C(=O)O` (stereo not shown) [Compound 2, 2-[[(2,3,4,5,6-pentafluorobenzyl)hydroxyphosphinyl]methyl]-pentanedioic acid], the “immunostaining of MBP” value in assay [1] (1 nM, two week treatment) is “significant increase”. The “extent of myelination vs. maximal doses of ascorbic acid and progesterone” value in assay [1] (high dose, 1 μM) is on record as “greater extent of myelination”. In assay [2], the “withdrawal latency vs. vehicle animals” value is “significant increase”. In addition, in the assay with PCP-treated rats, the “locomotor-activating effects of PCP (head rolling scores)” value is recorded as “significantly reduced”. In addition, the “nerve conduction deficits vs. diabetic controls receiving vehicle” value with BB/W diabetic rats [3] is given as “significantly less severe nerve conduction deficits”. The “sensory nerve conduction velocity” value in the assay with STZ-diabetic animals (after 8 weeks) is “significant improvement”. In addition, the “motor nerve conduction velocity” value in the assay on STZ-diabetic animals (after 12 weeks) is “significant improvement”. Besides, the “hyperalgesic response in diabetic rats” value in assay [4] is reported as “completely reversed”. Further, the “withdrawal latencies vs. diabetic vehicle-treated rats” value in the assay with BB/W diabetic rats [5] is “longer withdrawal latencies”. For the same compound, the “acetic acid (0.6%) induced writhing vs. vehicle control” value in assay [6] is listed as “significantly attenuated”.
